Measurements published in PMC4501547, “Virtual and In Vitro Screens Reveal a Potential Pharmacophore that Avoids the Fibrillization of Aβ1–42” (PLoS ONE, 2015).

Tests used:
[1] = target: T1, Aβ1–42 (amyloid β peptide, 42 residues) (Homo sapiens, UniProt P05067); assay: Thioflavin T fluorescence fibrillization assay; assay type: biochemical
T1 construct: gene APP; wild-type 42-residue peptide Abeta 1-42, cut from amyloid-beta precursor protein (APP770 residues 672-713); lyophilized, chloride salt, purchased from Calbiochem; non-fibrillated at start, aggregating during the assay

[2] = target: T1, Aβ1–42 (amyloid β peptide, 42 residues); assay: Thioflavin T fluorescence fibrillization assay; assay type: biochemical; remark: listed apart in the source

T1 sequence (P05067 672-713): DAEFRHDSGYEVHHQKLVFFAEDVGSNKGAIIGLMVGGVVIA

Structure (SMILES)	IC50 [1] [µM]	inhibition at 100 µM [2] [%]
CC(C(=O)Nc1ccc(C(C)(C)C)cc1)N1CCCC1 (stereo not drawn) [compound 5]	1.28	
COc1ccc(C2CNC(=O)C2)cc1OC1CCCC1 (stereo not drawn) [compound 14]		~50
O=C(COc1ccccc1)C1CCCN1 (stereo not drawn) [compound 8]	34.4	
